Data reported in the supplement of paper PMC10307832.

Columns and labels:
Assay in all cases: relative viability (nuclei count vs DMSO), 5 days (fraction); higher = more cells survive
Sulindac + Luminespib = compound: CC1=C(CC(=O)O)c2cc(F)ccc2/C1=C\c1ccc([S+](C)[O-])cc1 [Sulindac] + CCNC(=O)c1noc(-c2cc(C(C)C)c(O)cc2O)c1-c1ccc(CN2CCOCC2)cc1 [Luminespib] (partner 0.01 µM)
Summary of the method: (§1)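 Relative viability is defined as nuclei in treated wells over nuclei in vehicle wells. Duplicate plates were run and medians reported. Lung cancer cell lines in 1536-well plates were dosed by pin tool one day after seeding, with one drug or with a fixed anchor-drug dose plus five library-drug doses (not always all listed) in √10 steps, and nuclei were counted after 5 days.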

Sulindac + Bortezomib = compound: CC1=C(CC(=O)O)c2cc(F)ccc2/C1=C\c1ccc([S+](C)[O-])cc1 [Sulindac] + CC(C)C[C@H](NC(=O)[C@H](Cc1ccccc1)NC(=O)c1cnccn1)B(O)O [Bortezomib] (partner 0.002 µM)
Summary of the method: as §1

[1] = compound: O=c1[nH]cc(F)c(=O)[nH]1 [5-Fluorouracil] + CC(=O)Nc1cccc(-n2c(=O)n(C3CC3)c(=O)c3c(Nc4ccc(I)cc4F)n(C)c(=O)c(C)c32)c1 [Trametinib] (partner 0.02 µM)
Summary of the method: as §1

Sulindac + Pictilisib = compound: CC1=C(CC(=O)O)c2cc(F)ccc2/C1=C\c1ccc([S+](C)[O-])cc1 [Sulindac] + CS(=O)(=O)N1CCN(Cc2cc3nc(-c4cccc5[nH]ncc45)nc(N4CCOCC4)c3s2)CC1 [Pictilisib] (partner 1 µM)
Summary of the method: as §1

Cell Line | relative viability (Sulindac + Luminespib; first compound 0.08 µM) | relative viability (Sulindac + Luminespib; first compound 0.253 µM) | relative viability (Sulindac + Luminespib; first compound 0.8 µM) | relative viability (Sulindac + Luminespib; first compound 2.53 µM) | relative viability (Sulindac + Luminespib; first compound 8 µM) | relative viability (Sulindac + Bortezomib; first compound 0.08 µM) | relative viability (Sulindac + Bortezomib; first compound 0.253 µM) | relative viability (Sulindac + Bortezomib; first compound 0.8 µM) | relative viability (Sulindac + Bortezomib; first compound 2.53 µM) | relative viability (Sulindac + Bortezomib; first compound 8 µM) | relative viability ([1]; first compound 0.02 µM) | relative viability ([1]; first compound 0.2 µM) | relative viability ([1]; first compound 0.6325 µM) | relative viability ([1]; first compound 2 µM) | relative viability (Sulindac + Pictilisib; first compound 0.08 µM) | relative viability (Sulindac + Pictilisib; first compound 0.253 µM) | relative viability (Sulindac + Pictilisib; first compound 0.8 µM) | relative viability (Sulindac + Pictilisib; first compound 2.53 µM) | relative viability (Sulindac + Pictilisib; first compound 8 µM)
NCI-H2126 | 0.963 | 0.804 | 0.888 | 0.991 | 0.955 | 1.2 | 1.15 | 1.06 | 1.2 | 1.19 | 0.579 | 0.305 | 0.27 | 0.257 | 0.46 | 0.498 | 0.462 | 0.497 | 0.479
NCI-H838 | 0.231 | 0.277 | 0.243 | 0.211 | 0.307 | 0.951 | 0.774 | 0.512 | 0.628 | 0.76 | 0.482 | 0.579 | 0.373 | 0.246 | 0.519 | 0.466 | 0.377 | 0.426 | 0.603
EMC-BAC-2 | 1.04 | 1.23 | 0.802 | 1.23 | 1.22 | 1.14 | 1.1 | 0.824 | 1.06 | 1.08 | 0.934 | 1.05 | 0.914 | 0.879 | 0.524 | 0.58 | 0.485 | 0.542 | 0.596
NCI-H1355 | 0.612 | 0.668 |  | 0.601 | 0.702 | 1.27 | 1.23 | 1.12 | 1.24 | 1.3 | 0.443 | 0.387 | 0.265 | 0.242 | 0.458 | 0.407 | 0.36 | 0.39 | 0.448
NCI-H2347 | 0.302 | 0.478 |  | 0.411 | 0.519 | 0.884 | 0.97 | 0.704 | 0.86 | 1.11 | 0.281 | 0.256 | 0.293 | 0.166 | 0.298 | 0.637 | 0.503 | 0.6 | 0.509
NCI-H1651 | 1.08 | 0.897 |  | 0.8 | 0.948 | 1.01 | 0.953 |  | 0.958 | 1.04 | 0.879 | 0.684 | 0.325 | 0.267 | 0.751 | 0.672 | 0.416 | 0.621 | 0.599
NCI-H1993 | 0.718 | 0.774 | 0.645 | 0.961 | 0.988 | 1.11 | 1.1 | 1.03 | 0.945 | 1.29 | 0.379 | 0.524 | 0.486 | 0.487 | 0.827 | 0.787 | 0.769 | 0.732 | 0.927
COR-L23 | 0.903 | 0.555 | 0.508 | 0.739 | 0.952 | 1.17 | 1.14 |  | 1.2 | 1.23 | 0.585 | 0.631 | 0.359 | 0.275 | 0.987 | 0.933 |  | 0.727 | 1.07
HCC-44 | 0.969 | 1.08 |  | 1.05 | 1.25 | 0.89 | 0.882 | 0.853 | 0.904 | 0.966 | 1.09 | 1 | 0.692 | 0.599 | 0.403 | 0.562 | 0.537 | 0.687 | 0.589
LOU-NH91 | 0.322 | 0.322 | 0.314 | 0.328 | 0.401 | 0.554 | 0.516 | 0.601 | 0.531 | 0.459 | 0.814 | 0.871 | 0.818 | 0.596 | 0.584 | 0.514 | 0.536 | 0.512 | 0.574
NCI-H520 | 0.21 | 0.204 | 0.246 | 0.228 | 0.199 | 0.585 | 0.599 | 0.51 | 0.399 | 0.764 | 0.624 | 0.666 | 0.439 | 0.311 | 0.336 | 0.3 | 0.235 | 0.251 | 0.366
NCI-H661 | 0.969 | 0.97 | 0.852 | 0.9 | 0.957 | 0.726 | 0.769 | 0.688 | 0.852 | 0.885 | 0.63 | 0.67 | 0.481 | 0.567 | 0.421 | 0.412 | 0.358 | 0.514 | 0.461
NCI-H1975 | 0.189 | 0.205 | 0.159 | 0.174 | 0.267 | 0.387 | 0.461 |  | 0.334 | 0.441 | 0.307 | 0.548 | 0.313 | 0.238 | 0.301 | 0.28 |  | 0.282 | 0.286
NCI-H1755 | 0.546 | 0.829 | 0.399 | 0.536 | 0.486 | 1.25 | 1.03 | 0.85 | 1.01 | 1.04 | 0.796 | 0.688 | 0.417 | 0.37 | 0.434 | 0.419 | 0.304 | 0.362 | 0.507
NCI-H2009 | 1.15 | 1.01 | 1.05 | 0.986 | 1.15 | 1.1 | 1.16 | 0.877 | 1.01 | 1.04 | 0.255 | 0.271 | 0.247 | 0.215 | 1.04 | 0.8 | 0.788 | 0.71 | 0.932
NCI-H3122 | 0.136 | 0.0774 | 0.0891 | 0.0935 | 0.105 | 1.05 | 1.01 | 1.1 | 1.04 | 1.02 | 0.232 | 0.296 | 0.187 | 0.176 | 0.675 | 0.602 | 0.592 | 0.627 | 0.621
